Reference: US11976083B2, “Inhibitors of peptidylarginine deiminases” (Gilead Sciences, Inc., priority 2020, dated 2024)

Target: T1, human PAD4 (Homo sapiens, UniProt Q9UM07)
T1 construct: human PAD4 (NM_012387), A2-P663, was PCR amplified; His-SUMO (N, cleaved yes); made in house; host or cells: E. coli BL21(DE3)
Assay: In vitro PAD4 BAEE biochemical assay
Settings: BAEE substrate 3 mM, 5 nM PAD4, 2 mM calcium chloride; geometric mean of multiple experiments
Procedure, shortened: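 Assay was run at 25 °C using 3 mM BAEE and 5 nM human PAD4 after a 30 min compound preincubation; ammonia produced over 2 h was quantified by OPA-derived fluorescence. Full inhibition was defined by 50 µM BB-Cl-Amidine, and IC50 came from variable-slope nonlinear regression.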

T1 sequence (Q9UM07 2-663): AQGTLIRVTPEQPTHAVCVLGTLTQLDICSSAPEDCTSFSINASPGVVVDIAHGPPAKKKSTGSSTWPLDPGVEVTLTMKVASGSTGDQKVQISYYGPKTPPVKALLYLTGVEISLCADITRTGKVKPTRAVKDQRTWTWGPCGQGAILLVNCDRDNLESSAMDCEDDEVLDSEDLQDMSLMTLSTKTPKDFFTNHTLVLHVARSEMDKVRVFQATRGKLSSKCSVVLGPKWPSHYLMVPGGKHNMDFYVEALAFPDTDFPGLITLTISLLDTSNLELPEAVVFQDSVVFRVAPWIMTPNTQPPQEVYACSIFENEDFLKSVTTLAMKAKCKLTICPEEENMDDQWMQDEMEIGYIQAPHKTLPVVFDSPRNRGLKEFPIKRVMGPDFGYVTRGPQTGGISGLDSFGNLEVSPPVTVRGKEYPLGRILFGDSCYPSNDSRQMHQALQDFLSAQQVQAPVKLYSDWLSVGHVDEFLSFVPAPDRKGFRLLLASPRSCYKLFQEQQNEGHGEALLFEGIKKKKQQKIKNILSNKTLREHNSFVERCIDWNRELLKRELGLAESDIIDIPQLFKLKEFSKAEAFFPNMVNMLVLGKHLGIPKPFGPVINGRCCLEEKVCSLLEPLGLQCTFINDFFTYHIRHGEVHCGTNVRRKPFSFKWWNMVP

| IC50 [µM] | Compound |
| --- | --- |
| 0.028 | C[C@H]1NC(=O)[C@@H]2C[C@H]2CCCC(F)(F)Cn2c(-c3nc4cc(C(=O)N5C[C@H](N)[C@@H]6CC[C@H]5C6)cc(F)c4n3[C@H]3C[C@H]3F)cc3ccc1nc32 [Example 468, (2~{R},5~{R},7~{R})-14-[5-[(1~{S},4~{R},5~{R})-4-amino-2-azabicyclo[3.2.1]octane-2-carbonyl]-7-fluoro-1-[(1~{S},2~{R})-2-fluorocyclopropyl]benzimidazol-2-yl]-11,11-difluoro-2-methyl-3,13,19-triazatetracyclo[11.5.2.0^{5,7}.0^{16,20}] icosa-1(19),14,16(20),17-tetraen-4-one] |
| 0.021 | C[C@H]1NC(=O)c2ccc(Cl)nc2CCCCCn2c(-c3nc4cc(C(=O)N5C[C@H](N)[C@@H]6CC[C@H]5C6)cc(F)c4n3C)cc3ccc1nc32 [Example 469, (2~{R})-17-[5-[(1~{S),4~{R},5~{R})-4-amino-2-azabicyclo[3.2.1]octane-2-carbonyl]-7-fluoro-1-methyl-benzimidazol-2-yl]-8-chloro-2-methyl-3,9,16,22-tetrazatetracyclo[14.5.2.0^{5,10).0^ {19,23)]tricosa-1(21),5(10),6,8,17,19,22-heptaen-4-one] |
| 0.043 | CO[C@H]1C[C@@H]1n1c(-c2cc3ccc4nc3n2CC(F)(F)CCC[C@@H]2C[C@H]2C(=O)N[C@@H]4C)nc2cc(C(=O)N3C[C@H](N)[C@@H]4CC[C@H]3C4)cc(F)c21 [Example 470, (2~{R},5~{R},7~{R})-14-[5-[(1~{S},4~{R},5~{R})-4-amino-2-azabicyclo[3.2.1]octane-2-carbonyl]-7-fluoro-1-[(1~{S},2~{S})-2-methoxycyclopropyl]benzimidazol-2-yl]-11,11-difluoro-2-methyl-3,13,19-triazatetracyclo[11.5.2.0^{5,7}.0^{16,20}] icosa-1(18),14,16,19-tetraen-4-one] |
| 0.044 | C[C@H]1NC(=O)[C@@H]2C[C@H]2CCCC(F)(F)Cn2c(-c3nc4cc(C(=O)N5C[C@H](N)[C@@H]6CC[C@H]5C6)cc(Cl)c4n3C3CC3)cc3ccc1nc32 [Example 471, (2~{R},5~{R},7~{R})-14-[5-[(1~{S),4~{R},5~{R})-4-amino-2-azabicyclo[3.2.1]octane-2-carbonyl]-7-chloro-1-cyclopropyl-benzimidazol-2-yl]-11,11-difluoro-2-methyl-3,13,19-triazatetracyclo[11.5.2.0^{5,7}.0^{16,20}] icosa-1(18),14,16,19-tetraen-4-one] |
| 0.042 | C[C@H]1NC(=O)c2ccc(Cl)nc2CCCCCn2c(-c3nc4cc(C(=O)N5C[C@H](N)[C@@H]6CC[C@H]5C6)cc(F)c4n3C3CC3)cc3ccc1nc32 [Example 472, (2˜{R})-17-[5-[(1˜{S},4˜{R},5˜{R})-4-amino-2-azabicyclo[3.2.1]octane-2-carbonyl]-1-cyclopropyl-7-fluoro-benzimidazol-2-yl]-8-chloro-2-methyl-3,9,16,22-tetrazatetracyclo[14.5.2.0^{5,10}.0^{19,23}]tricosa-1(21),5(10),6,8,17,19,22-heptaen-4-one] |
| 0.044 | C[C@H]1NC(=O)c2ccc(Cl)nc2CCCCCn2c(-c3nc4cc(C(=O)N5C[C@H](N)[C@@H]6CC[C@H]5C6)cc(F)c4n3[C@@H]3C[C@H]3F)cc3ccc1nc32 [Example 473, (2~{R})-17-[5-[(1~{S},4~{R},5~{R})-4-amino-2-azabicyclo[3.2.1]octane-2-carbonyl]-7-fluoro-1-[(1~{R},2~{R})-2-fluorocyclopropyl]benzimidazol-2-yl]-8-chloro-2-methyl-3,9,16,22-tetrazatetracyclo[14.5.2.0^{5,10}.0^{19,23}] tricosa-1(22),5(10),6,8,17,19(23),20-heptaen-4-one] |
| 0.049 | C[C@H]1NC(=O)c2ccc(C(F)(F)F)nc2CCCCCn2c(-c3nc4cc(C(=O)N5C[C@H](N)[C@@H]6CC[C@H]5C6)cc(F)c4n3C3CC3)cc3ccc1nc32 [Example 474, (2~{R})-17-[5-[(1~{S},4~{R},5~{R})-4-amino-2-azabicyclo[3.2.1]octane-2-carbonyl]-1-cyclopropyl-7-fluoro-benzimidazol-2-yl]-2-methyl-8-(trifluoromethyl)-3,9,16,22-tetrazatetracyclo[14.5.2.0^{5,10}.0^{19,23}] tricosa-1(22),5(10),6,8,17,19(23),20-heptaen-4-one] |
| 0.062 | COc1cc(C(=O)N2C[C@H](N)[C@@H]3CC[C@H]2C3)cc2nc(-c3cc4ccc5nc4n3CC(F)(F)CCCCC3(CC3)C(=O)N[C@@H]5C)n(C)c12 [Example 475, (11~{R})-17-[5-[(1~{S},4~{R},5~{R})-4-amino-2-azabicyclo[3.2.1]octane-2-carbonyl]-7-methoxy-1-methyl-benzimidazol-2-yl]-3,3-difluoro-11-methyl-spiro[1,10,19-triazatricyclo[10.5.2.0^{15,18}]nonadeca-12(19),13,15(18),16-tetraene-8,1′-cyclopropane]-9-one] |
| 0.038 | C[C@H]1NC(=O)c2cc3ccccc3nc2CCCCCn2c(-c3nc4cc(C(=O)N5C[C@H](N)[C@@H]6CC[C@H]5C6)cc(F)c4n3C3CC3)cc3ccc1nc32 [Example 476, (2~{R})-21-[5-[(1~{S),4~{R},5~{R})-4-amino-2-azabicyclo[3.2.1]octane-2-carbonyl]-1-cyclopropyl-7-fluoro-benzimidazol-2-yl]-2-methyl-3,13,20,26-tetrazapentacyclo[18.5.2.0^{5,14).0^ {7,12}.0^{23,27}]heptacosa-1(26),5(14),6,8,10,12,21,23(27),24-nonaen-4-one] |
| 0.035 | C[C@H]1NC(=O)[C@@H]2C[C@H]2CCCC(F)(F)Cn2c(-c3nc4cc(C(=O)N5C[C@H](N)[C@@H]6CC[C@H]5C6)cc(F)c4n3[C@@H]3C[C@H]3F)cc3ccc1nc32 [Example 477, (2~{R},5~{R},7~{R})-14-[5-[(1~{S},4~{R},5~{R})-4-amino-2-azabicyclo[3.2.1]octane-2-carbonyl]-7-fluoro-1-[(1~{R},2~{R})-2-fluorocyclopropyl]benzimidazol-2-yl]-11,11-difluoro-2-methyl-3,13,19-triazatetracyclo[11.5.2.0^{5,7}.0^{16,20}] icosa-1(19),14,16(20),17-tetraen-4-one] |
| 0.05 | C[C@H]1NC(=O)c2c(ccnc2C(F)(F)F)CCCCCn2c(-c3nc4cc(C(=O)N5C[C@H](N)[C@@H]6CC[C@H]5C6)cc(F)c4n3C3CC3)cc3ccc1nc32 [Example 478, (2~{R})-17-[5-[(1~{S},4~{R},5~{R})-4-amino-2-azabicyclo[3.2.1]octane-2-carbonyl]-1-cyclopropyl-7-fluoro-benzimidazol-2-yl]-2-methyl-6-(trifluoromethyl)-3,7,16,22-tetrazatetracyclo[14.5.2.0^{5,10).0^{19,23}] tricosa-1(22),5(10),6,8,17,19(23),20-heptaen-4-one] |
| 0.047 | C[C@H]1NC(=O)[C@@H]2C[C@H]2CCCC(F)(F)Cn2c(-c3nc4cc(C(=O)N5C[C@H](N)[C@@H]6CC[C@H]5C6)cc(F)c4n3[C@H]3C[C@@H]3F)cc3ccc1nc32 [Example 479, (2~{R},5~{R},7~{R})-14-[5-[(1~{S},4~{R},5~{R})-4-amino-2-azabicyclo[3.2.1]octane-2-carbonyl]-7-fluoro-1-[(1~{S},2~{S})-2-fluorocyclopropyl]benzimidazol-2-yl]-11,11-difluoro-2-methyl-3,13,19-triazatetracyclo[11.5.2.0^{5,7}.0^{16,20}] icosa-1(19),14,16(20),17-tetraen-4-one] |
| 0.134 | C[C@H]1NC(=O)[C@@](F)(c2cccc(Cl)n2)CCCCCCn2c(-c3nc4cc(C(=O)N5C[C@H](N)[C@@H]6CC[C@H]5C6)cc(F)c4n3C3CC3)cc3ccc1nc32 [Example 480, (8~{S},11~{R})-17-[5-[(1~{S},4~{R},5~{R})-4-amino-2-azabicyclo[3.2.1]octane-2-carbonyl]-1-cyclopropyl-7-fluoro-benzimidazol-2-yl]-8-(6-chloro-2-pyridyl)-8-fluoro-11-methyl-1,10,19-triazatricyclo[10.5.2.0^{15,18}]nonadeca-12(19),13,15(18),16-tetraen-9-one] |
| 0.231 | C[C@H]1NC(=O)[C@](F)(c2cccc(Cl)n2)CCCCCCn2c(-c3nc4cc(C(=O)N5C[C@H](N)[C@@H]6CC[C@H]5C6)cc(F)c4n3C3CC3)cc3ccc1nc32 [Example 481, (8~{R},11~{R})-17-[5-[(1~{S},4~{R},5~{R})-4-amino-2-azabicyclo[3.2.1]octane-2-carbonyl]-1-cyclopropyl-7-fluoro-benzimidazol-2-yl]-8-(6-chloro-2-pyridyl)-8-fluoro-11-methyl-1,10,19-triazatricyclo[10.5.2.0^{15,18}]nonadeca-12(19),13,15(18),16-tetraen-9-one] |
| 0.026 | [2H]C1([2H])CCCC[C@@H]2C[C@H]2C(=O)N[C@H](C)c2ccc3cc(-c4nc5cc(C(=O)N6C[C@H](N)[C@@H]7CC[C@H]6C7)cc(F)c5n4C4CC4)n1c3n2 [Example 482, (2~{R},5~{R},7~{R})-14-[5-[(1~{S},4~{R},5~{R})-4-amino-2-azabicyclo[3.2.1]octane-2-carbonyl]-1-cyclopropyl-7-fluoro-benzimidazol-2-yl]-12,12-dideuterio-2-methyl-3,13,19-triazatetracyclo[11.5.2.0^{5,7}.0^{16,20}] icosa-1(19),14,16(20),17-tetraen-4-one] |
| 0.033 | C[C@H]1NC(=O)c2nccnc2CCCC(F)(F)Cn2c(-c3nc4cc(C(=O)N5C[C@H](N)[C@@H]6CC[C@H]5C6)cc(F)c4n3C3CC3)cc3ccc1nc32 [Example 483, (2~{R})-17-[5-[(1~{S},4~{R},5~{R})-4-amino-2-azabicyclo[3.2.1]octane-2-carbonyl]-1-cyclopropyl-7-fluoro-benzimidazol-2-yl]-14,14-difluoro-2-methyl-3,6,9,16,22-pentazatetracyclo[14.5.2.0^{5,10}.0^{19, 23}]tricosa-1(22),5(10),6,8,17,19(23),20-heptaen-4-one] |
